In article PMC12661400, “Oral bioavailable ITRI-148 degrades androgen receptor variants and overcomes antiandrogen resistance in advanced prostate cancer” (Neoplasia (New York, N.Y.), 2025):
Values joined by “and” are separate entries in the source; they are usually repeats but may differ in a detail not shown here. Equal entries are not always repeated. Where two headings read alike, the source gives them in different places.

What was measured:
[1] = Repeated-dose toxicity study: serum clinical chemistry; format: in vivo, Sprague-Dawley rats; settings: rat serum
Protocol: Repeated-dose toxicity and toxicokinetic studies
Repeated-dose oral toxicity study and toxicokinetic (TK) profiling was conducted in Sprague-Dawley rats. ITRI-148 was administered once daily using oral gavage at doses of 100, 300, 600, and 1000 mg/kg/day for 7 consecutive days, followed by a 7-day recovery period. Each dose group comprised 3 animals designated for toxicokinetic (TK) analysis and 6 animals for dose-range finding (DRF) evaluation. Clinical observations, body weights, and food consumption were monitored daily throughout the dosing and recovery periods. […]
All samples were analyzed in duplicate. Hematology and serum clinical chemistry analyses were performed on Day 7 (end of dosing) and Day 14 (end of recovery). […]
All procedures were conducted in compliance with institutional animal care and use guidelines. […]
Targeting androgen receptor and the variants by an orally bioavailable
Proteolysis Targeting Chimeras compound in castration resistant prostate cancer

AR = AR degradation by immunoblotting in CRPC cells; format: cell-based
Protocol: Cell lysis, Western blotting, and AR ubiquitination were performed as described in [17]. Primary antibodies: AR (Millipore 06-680), AR-V7 (RevMAb Biosciences 31-1109-00), PSA (ABclonal A4355), NKX3-1 (Cell Signaling Technology 92998), GAPDH (Cell Signaling Technology 2118) and β-Actin (Sigma-Aldrich A5441).
Fig. 1 ITRI-148 induces degradation of both AR and AR-V7 proteins in CRPC cells. […] (B) Expression of Flag-tagged AR-V7 in 293T cells following ITRI-148 treatment. Cells transiently expressing Flag-AR-V7 were pretreated with 50 μg/mL cycloheximide for 1 hour, then exposed to ITRI-148 at the indicated concentrations for 8 hours. AR-V7 expression was detected using an anti-Flag antibody. (C) Representative immunoblots showing AR protein levels in VCaP and CWR22Rv1 cells after 48 hours of ITRI-148 treatment. An N-terminal AR antibody was used to detect both full-length AR and LBD-truncated variants (AR-V(ΔLBD)) in CWR22Rv1 cells, while AR-V7 was detected using an AR-V7-specific antibody. DC₅₀ values were calculated from normalized band intensities, and Dₘₐₓ represents the maximal degradation achieved at 10 μM ITRI-148. (D) Immunofluorescence staining of AR after 24 or 48 hours of ITRI-148 treatment, detected using an N-terminal AR antibody. […] (F) Western blot analysis of ectopically expressed wild-type (WT) and mutant Myc-tagged AR in DU145 cells following 24 hours of treatment with 10 μM ITRI-148. Quantified AR levels are as indicated. TEXT PRINTED IN THE PICTURE: (C) ITRI-148: DC50 (μM) AR CWR22Rv1: 1.23 ± 1.86; DC50 (μM) AR VCaP: 0.05 ± 0.03; DC50 (μM) AR-V7 CWR22Rv1: 1.20 ± 0.92; DC50 (μM) AR-V7 VCaP: 0.02 ± 0.02; Dmax (%) AR CWR22Rv1: 65.02 ± 19.91; Dmax (%) AR VCaP: 80.49 ± 5.61; Dmax (%) AR-V7 CWR22Rv1: 72.10 ± 3.15; Dmax (%) AR-V7 VCaP: 91.36 ± 2.05

[2] = In vitro stability in plasma; format: in vitro ADME, mouse; settings: mice plasma
Protocol: The stability of ITRI-148 was assessed in plasma across four species: humans, dogs, rats, and mice. ITRI-148 added to pre-warmed plasma at 1 μM was maintained at the designated temperature, and aliquots were collected at 0, 0.5, 1, 2, and 4 hours after incubation. At each time point, 20 μL of the samples was taken to terminate the reaction, followed by LC-MS/MS analysis to determine the remaining compound concentration. Data from duplicated experiments was calculated and presented as mean ± SD.

[3] = Pharmacokinetic analysis after oral dosing in mice; format: in vivo, BALB/c mice
Protocol: Six to eight-week-old male BALB/c (BALB/cAnNCrlBltw) mice (22-30 g) were purchased from BioLASCO Taiwan Co., Ilan, Taiwan. In vivo PK analysis of ITRI-148 was performed with 10 mg/kg for oral (PO, n = 3) dosing route. Blood samples from the mice were collected using Microvette® CB 300 EDTA blood collection tubes by a lancet at 0.167 h (IV only), 0.5, 1, 2, 4, 7 and 24 h time points. The plasma was then subjected to LC-MS analysis to quantitate the drug concentration using calibration curves that were established with drug standards prepared in mice plasma.

[4] = PO 100 mg/kg/day 7 days, Day 14 (recovery)
[5] = PO 300 mg/kg/day 7 days, Day 14 (recovery)
[6] = PO 600 mg/kg/day 7 days, Day 14 (recovery)
[7] = PO 1000 mg/kg/day 7 days, Day 7
[8] = PO 1000 mg/kg/day 7 days, Day 14 (recovery)
[9] = male, BALB/c, mouse, plasma, po, 10 mg/kg

Q: With `O=C1CCC(N2C(=O)c3cccc(NCC(=O)N4CCC(N5CCC(C#Cc6ccc(C7CCN(C8=Nn9c(nnc9C(F)(F)F)CC8)CC7)cc6)CC5)CC4)c3C2=O)C(=O)N1` (stereo not shown) [ITRI-148] as the molecule, how does the ALT ([1]; PO 100 mg/kg/day 7 days, Day 7) read?
A: 102.3 ± 40.6 U/L

Q: And the AST ([1]; PO 100 mg/kg/day 7 days, Day 7)?
A: 188.7 ± 59 U/L

Q: What about the BUN ([1]; PO 100 mg/kg/day 7 days, Day 7) of the same molecule?
A: 17.73 ± 2.8 mg/dL

Q: And the CRE ([1]; PO 100 mg/kg/day 7 days, Day 7)?
A: 0.63 ± 0.06 mg/dL

Q: And the ALT [1, 4]?
A: 84.3 ± 31.6 U/L

Q: And the AST [1, 4]?
A: 136.7 ± 10.4 U/L

Q: What about the BUN [1, 4] of the same molecule?
A: 13.23 ± 1.12 mg/dL

Q: And the CRE [1, 4]?
A: 0.4 ± 0.1 mg/dL

Q: And the ALT ([1]; PO 300 mg/kg/day 7 days, Day 7)?
A: 85.3 ± 10 U/L

Q: And the AST ([1]; PO 300 mg/kg/day 7 days, Day 7)?
A: 177 ± 37.4 U/L

Q: And the BUN ([1]; PO 300 mg/kg/day 7 days, Day 7)?
A: 20.53 ± 2.06 mg/dL

Q: And the CRE ([1]; PO 300 mg/kg/day 7 days, Day 7)?
A: 0.63 ± 0.06 mg/dL

Q: And the ALT [1, 5]?
A: 60.7 ± 7.1 U/L

Q: What about the AST [1, 5] of the same molecule?
A: 122 ± 5.3 U/L

Q: What about the BUN [1, 5] of the same molecule?
A: 10.9 ± 1.13 mg/dL

Q: And the CRE [1, 5]?
A: 0.33 ± 0.06 mg/dL

Q: What about the ALT ([1]; PO 600 mg/kg/day 7 days, Day 7) of the same molecule?
A: 76.7 ± 2.1 U/L

Q: And the AST ([1]; PO 600 mg/kg/day 7 days, Day 7)?
A: 196 ± 66 U/L

Q: What about the BUN ([1]; PO 600 mg/kg/day 7 days, Day 7) of the same molecule?
A: 21.8 ± 1.81 mg/dL

Q: And the CRE ([1]; PO 600 mg/kg/day 7 days, Day 7)?
A: 0.57 ± 0.06 mg/dL

Q: And the ALT [1, 6]?
A: 69.3 ± 11.5 U/L

Q: What about the AST [1, 6] of the same molecule?
A: 170 ± 41.7 U/L

Q: What about the BUN [1, 6] of the same molecule?
A: 13.03 ± 0.83 mg/dL

Q: What about the CRE [1, 6] of the same molecule?
A: 0.47 ± 0.06 mg/dL

Q: What about the ALT [1, 7] of the same molecule?
A: 68 ± 15.4 U/L

Q: And the AST [1, 7]?
A: 132.7 ± 14.5 U/L

Q: What about the BUN [1, 7] of the same molecule?
A: 16.77 ± 2.32 mg/dL

Q: What about the CRE [1, 7] of the same molecule?
A: 0.57 ± 0.06 mg/dL

Q: What about the ALT [1, 8] of the same molecule?
A: 94.3 ± 41.2 U/L

Q: What about the AST [1, 8] of the same molecule?
A: 150.3 ± 43 U/L

Q: And the BUN [1, 8]?
A: 16.23 ± 4.71 mg/dL

Q: What about the CRE [1, 8] of the same molecule?
A: 0.37 ± 0.06 mg/dL

Q: What about the DC50 (AR; CWR22Rv1, 48 hours, read-out: DC50 AR) of the same molecule?
A: 1230 ± 1860 nM

Q: And the “Dmax AR” value (AR; CWR22Rv1, maximal degradation at 10 μM)?
A: 65.02 ± 19.91%

Q: What about the DC50 (AR; VCaP cells, read-out: half-maximal degradation concentration (DC50) for AR) of the same molecule?
A: ~50 nM

Q: What about the DC50 (AR; VCaP, 48 hours, read-out: DC50 AR) of the same molecule?
A: 50 ± 30 nM

Q: And the “Dmax AR” value (AR; VCaP, maximal degradation at 10 μM)?
A: 80.49 ± 5.61% and 80%

Q: And the “Remaining of intact drug (%)” value ([2]; 1 μM, incubation up to 4 hours)?
A: 80.2 ± 0.3%

Q: What about the half-life at 1 μM ([2]; mouse, read-out: Plasma Stability t1/2) of the same molecule?
A: > 4 h

Q: What about the AUC/Dose ([3]; PO, 10 mg/kg, 0-24 h per dosing) of the same molecule?
A: 990.1 h⋅kg⋅ng/mL/mg

Q: And the BA ([3]; PO, 10 mg/kg, bioavailability)?
A: 27.1 ± 0.5%

Q: What about the “PK (PO, 10 mg/kg) BA” value ([3]; PO, bioavailability) of the same molecule?
A: 27.1%

Q: And the AUC [3, 9]?
A: 9900 ng·h/mL

Q: And the Cmax [3, 9]?
A: 733 ± 45 ng/mL

Q: What about the Tmax [3, 9] of the same molecule?
A: 4 h

Q: What about the AUC(0-t) ([3]; male, BALB/c, mouse, plasma, PO, 10 mg/kg, between 0 and 24 h) of the same molecule?
A: 9900 ng·h/mL
